Measured values as given in patent publication US20250326771A1, “PIPERAZINE DERIVATIVES USEFUL IN HIV THERAPY” (VIIV HEALTHCARE COMPANY, priority 2022, published 2025).

Legend:
cIAP1-BIR3 = cIAP1-BIR3 (Homo sapiens (Human), UniProt Q13490); assay: BIR binding assay (FRET competition), cIAP1 BIR3
Description: (§1) The BIR domain binding assays are FRET based competition assays that utilize His-tagged versions of each of the BIR2 and BIR3 domains from cIAP1, cIAP2, and XIAP (each domain assayed separately) each at a custom optimal concentration and a probe, 200 nM SMAC/DIABLO peptide […] labelled with AlexaFluor647 (part #crb 1110326h, Discovery Peptides). The assay is conducted in 50 mM HEPES, […], 1 mM CHAPS, 5% Glycerol, 1 mM DTT, in dI water with a final pH of 7.4 and final volume of 20 uL. Final protein domain concentrations are: 50 nM cIAP1-BIR3 (Part #APT-11-370 Reaction Biology), 100 nM XIAP-BIR3 (Part #APT-11-351 Reaction Biology), 200 nM XIAP-BIR2 (Part #APT-11-470 Reaction Biology), 325 nM cIAP2-BIR2 (Part #APT-11-489 Reaction Biology), 50 nM cIAP2-BIR3 (Part #APT-11-372 Reaction Biology), 325 nM cIAP1-BIR2 (Part #APT-11-487 Reaction Biology). Compounds were plated using a HP Tecan D300 printer in a final total volume of 202 nl and DMSO concentration normalized across the 15-point, 3-fold dilution series. Peptide and probe were prepared at 2× relative to the concentrations above in binding buffer, 10 uL added to the prepared compound plates, and incubated for 60 minutes. LANCE Eu-W1024 (part #AD0401 Perkin Elmer #, vendor) was prepared at 2× concentration in binding buffer for final concentration of 2 nM, 10 uL added to each well, and plates incubated for 30 minutes. Plates were read on an ENVISION multifunction plate reader with […] laser excitation to obtain the 615 nm/665 nm emission ratio as indicative of probe:protein proximity. Data was analyzed using GraphPad PRISM and curves fit using log(inhibitor) vs. response—Variable slope (four […] method to obtain IC50 and pIC50 values.

XIAP-BIR3 = XIAP-BIR3 (Homo sapiens (Human), UniProt P98170); assay: BIR binding assay (FRET competition), XIAP BIR3
Sequence of XIAP-BIR3 (P98170 241-356): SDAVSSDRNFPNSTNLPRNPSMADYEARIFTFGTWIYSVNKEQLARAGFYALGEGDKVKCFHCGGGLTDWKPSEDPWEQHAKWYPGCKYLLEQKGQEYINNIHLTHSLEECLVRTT
Description: as §1

[1] = tested on: Jurkat HIV-luciferase clones; assay: Jurkat latency reversal assay; assay type: cell-based; details: Homo sapiens, 48 h; Jurkat latency reversal assay potency; read-out: Jurkat pEC50 (converted)
Description: Jurkat HIV-luciferase clones were maintained in RPMI medium 1640 (Gibco by Life Technologies) containing 10% (vol/vol) fetal bovine serum (SAFC/Sigma-Aldrich) and 25 units/mL penicillin, 25 units/mL streptomycin (Gibco by Life Technologies), and were split 1:4 every 3 to 4 days to maintain a cell density of ˜0.3 to 1 million cells/mL. The Jurkat clones were maintained with the addition of 500 nM EFV in the medium. Three Jurkat cell clones (C16, 115, and N6), each harboring one or two integrated HIV proviruses expressing the luciferase reporter gene, were added at equal amounts for a total of 5,000 cells per well to 384-well plates containing compound titrations. Dose-response testing was performed on compounds dissolved in dimethyl sulfoxide (DMSO; Fisher Scientific, Merelbeke, Belgium) dispensed in duplicate serial 3-fold, 14-point titrations using a D300e Digital Droplet Dispenser (Hewlett-Packard) to give final assay concentrations of 10 μM to […] in 50 μL of medium at 0.5% DMSO (vol/vol) final concentration. Cells and compound were incubated at 37° C. for 48 hours, unless otherwise indicated, followed by the addition of 20 μL of Steady-Glo® Luciferase (Promega). Luminescence resulting from the induction of the virally expressed luciferase was measured using an EnVision 2102 Multilabel Plate Reader (Perkin Elmer). Dose-response relationships were analyzed with GraphPad PRISM 6 using a four-parameter logistic regression model to calculate the concentration of compound that gives half-maximal response (EC50) and the maximal percent activation compared to the vehicle control.

cIAP2-BIR3 = cIAP2-BIR3 (Homo sapiens (Human), UniProt Q13489); assay: BIR binding assay (FRET competition), cIAP2 BIR3
Sequence of cIAP2-BIR3 (Q13489 238-349): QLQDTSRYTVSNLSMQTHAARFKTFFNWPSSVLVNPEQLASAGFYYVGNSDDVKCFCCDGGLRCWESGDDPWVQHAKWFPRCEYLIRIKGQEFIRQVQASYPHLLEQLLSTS
Description: as §1

Sequence of cIAP1-BIR3 (Q13490 253-363): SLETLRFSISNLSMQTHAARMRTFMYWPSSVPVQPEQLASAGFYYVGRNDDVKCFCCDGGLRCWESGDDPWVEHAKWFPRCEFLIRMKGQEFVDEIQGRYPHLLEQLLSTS

| SMILES | IC50 (cIAP1-BIR3) | IC50 (XIAP-BIR3) | EC50 [1] | IC50 (cIAP2-BIR3) |
| --- | --- | --- | --- | --- |
| C[C@@H]1CN(CC(=O)N2CC(C)(C)c3[nH]c(=O)c(Cc4ccc(F)cc4)cc32)[C@@H](CN2CCC(CCCC3CCN(C[C@H]4CN[C@H](C)CN4CC(=O)N4CC(C)(C)c5[nH]c(=O)c(Cc6ccc(F)cc6)cc54)CC3)CC2)CN1 [Example 94, 1,1′-(2,2′-((3R,3′R,6R,6′R)-((propane-1,3-diylbis(piperidine-4,1-diyl))bis(methylene))bis(3-methylpiperazine-6,1-diyl))bis(acetyl))bis(6-(4-fluorobenzyl)-3,3-dimethyl-1,2,3,4-tetrahydro-5H-pyrrolo[3,2-b]pyridin-5-one)] | 7.94 to 15.8 nM | 15.8 to 31.6 nM | 0.49 to 12.6 nM | 7.94 to 15.8 nM |
| C[C@@H]1CN(CC(=O)N2CC(C)(C)c3[nH]c(=O)c(Cc4ccc(F)cc4)cc32)[C@@H](CN2CCO[C@H](COc3ccc(C(=O)c4ccc(OC[C@@H]5CN(C[C@H]6CN[C@H](C)CN6CC(=O)N6CC(C)(C)c7[nH]c(=O)c(Cc8ccc(F)cc8)cc76)CCO5)cc4)cc3)C2)CN1 [Example 54, 1,1′-(2,2′-((3R,3′R,6R,6′R)-(((2S,2'S)-(((carbonylbis(4,1-phenylene))bis(oxy))bis(methylene))bis(morpholine-2,4-diyl))bis(methylene))bis(3-methylpiperazine-6,1-diyl))bis(acetyl))bis(6-(4-fluorobenzyl)-3,3-dimethyl-1,2,3,4-tetrahydro-5H-pyrrolo[3,2-b]pyridin-5-one)] | 15.8 to 31.6 nM | 15.8 to 31.6 nM | 0.49 to 12.6 nM | 15.8 to 31.6 nM |
| C[C@@H]1CN(CC(=O)N2CC(C)(C)c3[nH]c(=O)c(Cc4ccc(F)cc4)cc32)[C@@H](CN2CCO[C@H](COc3ccc(C(C)(C)c4ccc(OC[C@@H]5CN(C[C@H]6CN[C@H](C)CN6CC(=O)N6CC(C)(C)c7[nH]c(=O)c(Cc8ccc(F)cc8)cc76)CCO5)cc4)cc3)C2)CN1 [Example 56, 1,1′-(2,2′-((3R,3′R,6R,6′R)-(((2S,2'S)-(((propane-2,2-diylbis(4,1-phenylene))bis(oxy))bis(methylene))bis(morpholine-2,4-diyl))bis(methylene))bis(3-methylpiperazine-6,1-diyl))bis(acetyl))bis(6-(4-fluorobenzyl)-3,3-dimethyl-1,2,3,4-tetrahydro-5H-pyrrolo[3,2-b]pyridin-5-one)] | 31.6 to 501 nM | 31.6 to 501 nM | 12.6 to 63.1 nM | 31.6 to 501 nM |
| C[C@@H]1CN(CC(=O)N2CC(C)(C)c3[nH]c(=O)c(Cc4ccc(Cl)cc4Cl)cc32)[C@@H](CN2CCO[C@H](COc3cccc(OC[C@@H]4CN(C[C@H]5CN[C@H](C)CN5CC(=O)N5CC(C)(C)c6[nH]c(=O)c(Cc7ccc(Cl)cc7Cl)cc65)CCO4)c3)C2)CN1 [Compound 187] | 7.94 to 15.8 nM | 31.6 to 501 nM | 0.49 to 12.6 nM | 7.94 to 15.8 nM |
| C[C@@H]1CN(CC(=O)N2CC(C)(C)c3[nH]c(=O)c(Cc4ccc(F)cc4)cc32)[C@@H](CN2CCC(CCCOc3cccc(OCCCC4CCN(C[C@H]5CN[C@H](C)CN5CC(=O)N5CC(C)(C)c6[nH]c(=O)c(Cc7ccc(F)cc7)cc65)CC4)c3)CC2)CN1 [Example 109, 1,1′-(2,2′-((3R,3′R,6R,6′R)-((((1,3-phenylenebis(oxy))bis(propane-3,1-diyl))bis(piperidine-4,1-diyl))bis(methylene))bis(3-methylpiperazine-6,1-diyl))bis(acetyl))bis(6-(4-fluorobenzyl)-3,3-dimethyl-1,2,3,4-tetrahydro-5H-pyrrolo[3,2-b]pyridin-5-one)] | 15.8 to 31.6 nM | – | 12.6 to 63.1 nM | 7.94 to 15.8 nM |
| C[C@@H]1CN(CC(=O)N2CC(C)(C)c3[nH]c(=O)c(Cc4ccc(F)cc4)cc32)[C@@H](CN2CCN(S(=O)(=O)c3ccc(Oc4ccc(S(=O)(=O)N5CCN(C[C@H]6CN[C@H](C)CN6CC(=O)N6CC(C)(C)c7[nH]c(=O)c(Cc8ccc(F)cc8)cc76)[C@H](C)C5)cc4)cc3)C[C@H]2C)CN1 [Example 30, 2,2′-((3R,3′R,6R,6′R)-(((2R,2′R)-(oxybis(4,1-phenylenesulfonyl))bis(2-methylpiperazine-4,1-diyl))bis(methylene))bis(3-methylpiperazine-6,1-diyl))bis(1-(6-(4-fluorobenzyl)-3,3-dimethyl-5-oxo-2,3,4,5-tetrahydro-1H-pyrrolo[3,2-b]pyridin-1-yl)ethan-1-one)] | 31.6 to 501 nM | 31.6 to 501 nM | 316 to 3310 nM | 15.8 to 31.6 nM |
| C[C@@H]1CN(CC(=O)N2CC(C)(C)c3[nH]c(=O)c(Cc4ccc(F)cc4)cc32)[C@@H](CN2CCO[C@H](COc3ccc(-c4ccc(OC[C@@H]5CN(C[C@H]6CN[C@H](C)CN6CC(=O)N6CC(C)(C)c7[nH]c(=O)c(Cc8ccc(F)cc8)cc76)CCO5)cc4)cc3)C2)CN1 [Example 50, 1,1′-(2,2′-((3R,3′R,6R,6′R)-(((2S,2'S)—(([1,1′-biphenyl]-4,4′-diylbis(oxy))bis(methylene))bis(morpholine-2,4-diyl))bis(methylene))bis(3-methylpiperazine-6,1-diyl))bis(acetyl))bis(6-(4-fluorobenzyl)-3,3-dimethyl-1,2,3,4-tetrahydro-5H-pyrrolo[3,2-b]pyridin-5-one)] | 1.38 to 7.94 nM | 1.38 to 7.94 nM | 0.49 to 12.6 nM | 1.38 to 7.94 nM |
| C[C@@H]1CN(CC(=O)N2CC(C)(C)c3[nH]c(=O)c(Cc4ccc(F)cc4)cc32)[C@@H](CN2CCO[C@H](COc3ccc(CCc4ccc(OC[C@@H]5CN(C[C@H]6CN[C@H](C)CN6CC(=O)N6CC(C)(C)c7[nH]c(=O)c(Cc8ccc(F)cc8)cc76)CCO5)cc4)cc3)C2)CN1 [Example 58, 1,1′-(2,2′-((3R,3′R,6R,6′R)-(((2S,2'S)-(((ethane-1,2-diylbis(4,1-phenylene))bis(oxy))bis(methylene))bis(morpholine-2,4-diyl))bis(methylene))bis(3-methylpiperazine-6,1-diyl))bis(acetyl))bis(6-(4-fluorobenzyl)-3,3-dimethyl-1,2,3,4-tetrahydro-5H-pyrrolo[3,2-b]pyridin-5-one)] | 15.8 to 31.6 nM | 15.8 to 31.6 nM | 12.6 to 63.1 nM | 7.94 to 15.8 nM |
| COc1cc(Cl)ccc1Cc1cc2c([nH]c1=O)C(C)(C)CN2C(=O)CN1C[C@@H](C)NC[C@@H]1CN1CCO[C@H](C(=O)NCc2ccc(CNC(=O)[C@@H]3CN(C[C@H]4CN[C@H](C)CN4CC(=O)N4CC(C)(C)c5[nH]c(=O)c(Cc6ccc(Cl)cc6OC)cc54)CCO3)cc2)C1 [Compound 169, (2S,2′S)-N,N′-(1,4-phenylenebis(methylene)) bis(4-(((2R,5R)-1-(2-(6-(4-chloro-2-methoxybenzyl)-3,3-dimethyl-5-oxo-2,3,4,5-tetrahydro-1H-pyrrolo[3,2-b]pyridin-1-yl)-2-oxoethyl)-5-methylpiperazin-2-yl)methyl)morpholine-2-carboxamide)] | 7.94 to 15.8 nM | 31.6 to 501 nM | 12.6 to 63.1 nM | 1.38 to 7.94 nM |
| C[C@@H]1CN(CC(=O)N2CC(C)(C)c3[nH]c(=O)c(Cc4ccc(F)cc4)cc32)[C@@H](CN2CCO[C@H](COc3ccc(S(=O)(=O)c4ccc(OC[C@@H]5CN(C[C@H]6CN[C@H](C)CN6CC(=O)N6CC(C)(C)c7[nH]c(=O)c(Cc8ccc(F)cc8)cc76)CCO5)cc4)cc3)C2)CN1 [Example 57, 1,1′-(2,2′-((3R,3′R,6R,6′R)-(((2S,2'S)-(((sulfonylbis(4,1-phenylene))bis(oxy))bis(methylene))bis(morpholine-2,4-diyl))bis(methylene))bis(3-methylpiperazine-6,1-diyl))bis(acetyl))bis(6-(4-fluorobenzyl)-3,3-dimethyl-1,2,3,4-tetrahydro-5H-pyrrolo[3,2-b]pyridin-5-one)] | 31.6 to 501 nM | 31.6 to 501 nM | 12.6 to 63.1 nM | 15.8 to 31.6 nM |
